According to patent US5002773A, “Transdermal delivery of (+) (2S,3S)-3-acetoxy-8-chloro-5-(2-dimethylaminoethyl)-2,3-dihydro-2-(4-met hoxyphenyl)-1,5-benzothiazepin-4-(5H)-one” (Marion Merrell Dow Inc., priority 1989, dated 1991):
Values after ≈ are worked out from the molar mass of the structure shown. Counter-ions that a name gives are not always drawn.

Assays:
[1] = Intrinsic in-vitro skin permeability of diltiazem (side-by-side diffusion cell); format: in vitro ADME, hairless mouse; conditions: skin permeation rate/solubility, mean and SD, n=3
Experimental: About 2.5 cm×2.5 cm portion of freshly excised hairless mouse skin (5-7 week old, male) prepared as described in Example 4 above, was mounted between the two chambers of the side-by-side diffusion cell and securely clamped. […] 5% Trycol® solution in normal saline, prepared as described in Example 4 above, was introduced into the receptor compartment (the side facing the dermis side of the skin). Both donor and receptor compartments were maintained at 37° C. by a thermostatically controlled circulating water bath. At predetermined time intervals (usually at 3, 6, 12 and 24 hours) the entire volume of the receptor solution was withdrawn and immediately replaced with the same volume of fresh, drug-free Trycol® solution at 37° C. to maintain the […]. […] Slope of this line gave the value of skin permeation rate (mcg/cm^2 /hr).

[2] = literature statement; cited from earlier work
[3] = Intrinsic in-vitro skin permeability of TA-3090 at various pH conditions (side-by-side diffusion cell); format: in vitro ADME, hairless mouse; conditions: for Papp: mouse, skin permeation rate/solubility, mean and SD, n=3
Experimental: (§1) TA-3090 skin permeability was determined using a freshly excised hairless mouse skin and a side-by-side type of diffusion cell (available from Crown Glass Co., Somerville, N.J.). About 2.5 cm×2.5 cm portion of freshly excised hairless mouse skin (5-7 week old, male), prepared as described in Example 4, was mounted between the two chambers of the side-by-side diffusion cell and securely clamped. Saturated solution (with some extra drug in suspension state) of TA-3090 free base in phosphate buffer solution maintained at a particular pH was introduced into the donor side (the side facing the stratum corneum). 5% Trycol® solution in normal saline, prepared as described in Example 4, was introduced in the receptor compartment (the side facing the dermis side of the skin). Both donor and receptor compartments were maintained at 37° C. by a thermostatically controlled circulating water bath. At predetermined time intervals (usually at 3, 6, 12 and 24 hours) the entire volume of the receptor solution was withdrawn and immediately replaced with the same volume of the fresh, drug-free Trycol® solution at 37° C. to maintain the sink condition. […] From the concentration profiles of TA-3090 in the receptor compartment, the flux (mcg/cm^2) of skin permeation was calculated using a computer program and then plotted as a function of time (hour). Slope of this line gave the value of skin permeation rate (mcg/cm^2 /hr).

[4] = Aqueous solubility of TA-3090 free base with 5% PEG 20 Oleyl ether; format: physicochemical; conditions: with 5% PEG 20 Oleyl ether as solubilizer
Experimental: The aqueous solubility of TA-3090 free base was improved by the incorporation of 5% PEG 20 Oleyl ether as a solubilizer to maintain an effective sink condition required in the investigation, which simulates the biological sink achieved by hemoperfusion. […] Following this, the saline solution containing 5% w/w PEG 20 Oleyl ether (Trycol®) at 37° C. was introduced into the receptor compartment, which was thermostatically controlled at 37° C. by a circulating water bath.

[5] = once-a-day oral dose; background statement; cited from earlier work
in vivo = conditions: guinea pig, plasma, topical or ocular
[6] = Solubility of TA-3090 in donor solution; format: physicochemical; conditions: aqueous buffer, phosphate buffer, 37° C., mean and SD, n=3
Experimental: as §1

[7] = Experimental: The model used is an in-vitro excised hairless mouse skin model which is known in the art. The permeation rates of TA-3090 through the excised skin were measured using a Franz diffusion cell.
In-vitro evaluation of transdermal patches was accomplished using an excised hairless mouse/Franz diffusion cell model (available from Crown Glass Company, Somerville, N.J.) as follows. Immediately following sacrifice by cervical dislocation (or by CO2 gas), a portion (about 3.5 cm×3.5 cm) of the full-thickness abdominal skin was carefully excised from the hairless mouse (5-7 week old, male). The dermal side of the skin was carefully cleaned of any adhering subcutaneous tissue and/or blood vessels. […]
At a predetermined time interval (usually 4, 8, 12 and 24 hours), the entire volume of the receptor solution was withdrawn and immediately replaced with the same volume of the fresh, drug-free Trycol solution at 37° C. to maintain the sink condition. The concentration of TA-3090 in the sample was determined by a sensitive HPLC method. From the concentration profiles of TA-3090 in the receptor compartment, the flux (mcg/cm^2) of skin permeation was calculated using a computer program and then plotted as a function of time (hour). […]

calcium channel = conditions: background statement; cited from earlier work

COc1ccc([C@@H]2Sc3ccccc3N(CCN(C)C)C(=O)[C@@H]2OC(C)=O)cc1 [diltiazem free base, diltiazem]
Intrinsic Permeability [1]: 186.96 ± 49.74 (cm/hr) × 10^-5

COc1ccc([C@@H]2Sc3ccccc3N(CCN(C)C)C(=O)[C@@H]2OC(C)=O)cc1 [diltiazem HCl, diltiazem hydrochloride]
Intrinsic Permeability ([1]; hydrochloride): 1.66 ± 0.43 (cm/hr) × 10^-5
permeability through skin / percutaneous absorption [2]: poor percutaneous absorption

COc1ccc([C@@H]2Sc3cc(Cl)ccc3N(CCN(C)C)C(=O)[C@@H]2OC(C)=O)cc1 [TA-3090, (+)(2S,3S)-3-acetoxy-8-chloro-5-(2-dimethylaminoethyl)-2,3-dihydro-2-(4-methoxyphenyl)-1,5-benzothiazepin-4-(5H)-one]
Papp ([3]; donor side pH 5): 1.81 ×10⁻⁶ cm/s
Papp ([3]; donor side pH 7): 13.4 ×10⁻⁶ cm/s
Papp ([3]; donor side pH 9): 30.6 ×10⁻⁶ cm/s
Skin Permeation Rate ([3]; pH 5): 49.04 ± 8.76 mcg/cm^2 /hr
Skin Permeation Rate ([3]; pH 7): 29.39 ± 11.61 mcg/cm^2 /hr
Skin Permeation Rate ([3]; pH 9): 6.75 ± 1.54 mcg/cm^2 /hr
aqueous solubility [4]: improved
oral absorption [5]: incomplete oral absorption
concentration at 4 h (in vivo): 11.4 ± 4.09 ng/mL
concentration at 8 h (in vivo): 32.5 ± 4.56 ng/mL
concentration at 24 h (in vivo): 75.6 ng/mL
concentration at 48 h (in vivo): 71.1 ± 43.1 ng/mL
solubility ([6]; donor side pH 5): 7730 ± 1130 µg/mL (≈ 17200 µM)
solubility ([6]; donor side pH 7): 600 ± 20 µg/mL (≈ 1340 µM)
solubility ([6]; donor side pH 9): 60 ± 4 µg/mL (≈ 134 µM)
rate of administration from the transdermal delivery device [7]: 0.6 to 29.62 mcg/cm^2 /hr
vasodilating activity (calcium channel): potent vasodilating activity
